Reference: patent US7872036B2, “3-triazolylphenyl sulfide derivative and insecticide, miticide and nematicide containing it as an active ingredient” (Kumiai Chemical Industry Co., Ltd., priority 2004, dated 2011)

Experiments:
[1] = test system: two-spotted spider mites; assay: Miticidal test on two-spotted spider mites (by soil drenching); assay type: in vivo, Tetranychus urticae; design: scale not given here; conditions: active ingredient 100 ppm, 5 ml per 100 g soil, 25° C., 13 days
Method: (§1) Wettable powders were prepared in accordance with Formulation Example 2 and diluted with water to an active ingredient concentration of 100 ppm. 100 g of the soil in cups with soybean seedlings which had been inoculated with imago two-spotted spider mites were drenched with 5 ml of the resulting solutions. The treated seedlings were placed in a thermoplastic chamber at 25° C. for 13 days, and the mite survivors were counted for calculation of the miticidal value by using Equation 2.

[2] = test system: two-spotted spider mites; assay: Miticidal test on two-spotted spider mites (by dipping); assay type: in vivo, Tetranychus urticae; design: scale not given here; conditions: dipping of soybean seedlings, active ingredient 500 ppm, 25° C., 13 days
Method: as §1, with “500” for “100”, “Soybean” for “100 g of the soil in cups with soybean”, “dipped in” for “drenched with 5 ml of”, “solutions and dried in air.” for “solutions.”, “thermostatic” for “thermoplastic”, “2. The test was carried out by one series system.” for “2.”

[3] = test system: brown planthoppers; assay: Insecticidal test on brown planthoppers; assay type: in vivo, Nilaparvata lugens; conditions: active ingredient 500 ppm, germinating rice immersed, 4th-instar larvae, 25° C., 6 days
Method: Wettable powders were prepared in accordance with Formulation Example 2 and diluted with water to an active ingredient concentration of 500 ppm. Germinating rice was immersed in the resulting solutions and put in a plastic cup with a capacity of 60 ml. Ten 4th-instar larvae of brown planthoppers were released to the cup, and the cup was covered and placed in a thermostatic chamber at 25° C. for 6 days, and the survivors were counted for calculation of the insecticidal degree by using Equation 1. The test was carried out by one series system.

[4] = test system: southern root-knot nematodes; assay: Nemastatic test on southern root-knot nematodes; assay type: in vivo, Meloidogyne sp.; conditions: diluted solution 20 ppm mixed 1:1 with suspension of second stage larvae, 25° C., 5 days
Method: Compounds of the present invention (5 parts) and Tween 20 (tradename for polyoxyethylene sorbitan monolaurate) (1 part) as a spreader were dissolved n N,N-dimethylformamide (94 parts) to prepare 5% emulsifiable concentrates of the compounds of the present invention. Distilled water was added to the emulsifiable concentrates to prepare diluted solutions having a concentration of the compounds of the present invention of 20 ppm. 0.5 ml of the diluted solutions and 0.5 ml of water suspensions containing 100 second stage larvae of southern root-knot nematodes were mixed, and the mixture were placed in a thermostatic chamber at 25° C. for 5 days, and the survivors were counted for calculation of the nemastatic degree by using Equation 3. The test was carried out by two series system.

Compound	Miticidal value [1]	Miticidal value [2]	Insecticidal degree (%) [3]	Nemastatic degree (%) [4]
Cc1cc(F)c(-n2nc(SC(F)(F)C(F)(F)F)nc2N)cc1[S+]([O-])CC(F)(F)F (racemic) [Compound 177]	100	100		
Cc1cc(F)c(-n2nc(C(C(F)(F)F)C(F)(F)F)nc2N)cc1[S+]([O-])CC(F)(F)F (racemic) [Compound 183]	100	100		
C#CCNc1nc(SCC(F)(F)F)nn1-c1cc([S+]([O-])CC(F)(F)F)c(C)cc1F (racemic) [Compound 185]	100	100	100%	
CCC(=O)Nc1nc(C(F)(F)F)nn1-c1cc([S+]([O-])CC(F)(F)F)c(C)cc1F (racemic) [Compound 187]	99	100	100%	
Cc1cc(F)c(-n2nc(C(F)(F)F)nc2NC(=O)CCl)cc1[S+]([O-])CC(F)(F)F (racemic) [Compound 190]	100	100	100%	
Cc1cc(F)c(-n2nc(C(F)(F)F)nc2NC(=O)C(F)(F)Cl)cc1[S+]([O-])CC(F)(F)F (racemic) [Compound 192]	100	100	100%	
C#CCNc1nc(SC(F)(F)C(F)(F)F)nn1-c1cc([S+]([O-])CC(F)(F)F)c(C)cc1F (racemic) [Compound 194]	100	100	100%	
Cc1cc(F)c(-n2nc(C(F)(F)F)nc2NC(=O)NC(C)C)cc1[S+]([O-])CC(F)(F)F (racemic) [Compound 202]	100	100	100%	
Cc1cc(F)c(-n2nc(C(F)(F)F)nc2N)cc1[S+]([O-])CC1CC1 (stereo not drawn) [Compound 4]	100	100	90%	
Cc1cc(F)c(-n2nc(C(F)(F)F)nc2NC(=O)C(F)(F)F)cc1SCC(F)(F)F [Compound 5, [5-(5-trifluoroacetylamino-3-trifluoromethyl-1,2,4-triazolyl)-4-fluoro-2-methylphenyl]2,2,2-trifluoroethyl sulfide]	100	100	100%	
Cc1cc(Cl)c(-n2nc(C(F)(F)F)nc2N)cc1[S+]([O-])CC(F)(F)F (stereo not drawn) [Compound 8, [5-(5-amino-3-trifluoromethyl-1,2,4-triazolyl)-4-chloro-2-methylphenyl]2,2,2-trifluoroethyl sulfoxide]	100	100		
Cc1cc(F)c(-n2nc([S+](C)[O-])nc2N)cc1SCC(F)(F)F (stereo not drawn) [Compound 17]			100%	99%
Cc1cc(F)c(-n2nc(S(C)(=O)=O)nc2N)cc1[S+]([O-])CC(F)(F)F (stereo not drawn) [Compound 20]			100%	92%
CC[S+]([O-])c1nc(N)n(-c2cc(SCC(F)(F)F)c(C)cc2F)n1 (stereo not drawn) [Compound 23]			90%	100%
Cc1cc(F)c(-n2nc(SC(F)F)nc2N)cc1SCC(F)(F)F [Compound 27]			100%	100%
Cc1cc(F)c(-n2nc(SC(F)F)nc2N)cc1[S+]([O-])CC(F)(F)F (stereo not drawn) [Compound 28]	100	100	100%	
Cc1cc(F)c(-n2nc(SC(F)(F)F)nc2N)cc1SCC(F)(F)F [Compound 31]			100%	100%
Cc1cc(F)c(-n2nc(SC(F)(F)F)nc2N)cc1[S+]([O-])CC(F)(F)F (stereo not drawn) [Compound 32]	100	100	100%	
CNc1nc(C(F)(F)F)nn1-c1ccc(C)c(SCC(F)(F)F)c1 [Compound 37]	100	100	100%	
CNc1nc(C(F)(F)F)nn1-c1cc(SCC(F)(F)F)c(C)cc1F [Compound 39]			100%	100%
Cc1cc(C)c([S+]([O-])CC(F)(F)F)cc1-n1nc(C(F)(F)F)nc1N (stereo not drawn) [Compound 56]	100	100		
CCNc1nc(C(F)(F)F)nn1-c1cc(SCC(F)(F)F)c(C)cc1F [Compound 59]			100%	100%
C#CCNc1nc(C(F)(F)F)nn1-c1cc(SCC(F)(F)F)c(C)cc1F [Compound 65]			100%	100%
CC(=O)Nc1nc(C(F)(F)F)nn1-c1cc(SCC(F)(F)F)c(C)cc1F [Compound 75]			100%	94%

Compound	Miticidal value [1]	Miticidal value [2]	Insecticidal degree (%) [3]	Nemastatic degree (%) [4]
COC(=O)Nc1nc(C(F)(F)F)nn1-c1cc(SCC(F)(F)F)c(C)cc1F [Compound 79]			100%	94%
CNc1nc(C(F)(F)F)nn1-c1cc([S+]([O-])CC(F)(F)F)c(C)cc1Cl (stereo not drawn) [Compound 98]	100	100		
CNc1nc(SC(F)(F)C(F)(F)F)nn1-c1cc(SCC(F)(F)F)c(C)cc1F [Compound 101]			100%	98%
Cc1cc(F)c(-n2nc(C(C)(C)C#N)nc2N)cc1[S+]([O-])CC(F)(F)F (stereo not drawn) [Compound 104]	100	100		
Cc1cc(F)c(-n2nc(CC(C)(C)C)nc2N)cc1[S+]([O-])CC(F)(F)F (stereo not drawn) [Compound 107]	100	100		
N#Cc1ccc(-n2nc(C(F)(F)F)nc2N)cc1[S+]([O-])CC(F)(F)F (stereo not drawn) [Compound 121]	100	100		
Cc1ccc(-n2nc(C(F)(F)F)nc2N)cc1SCC(F)(F)F [Compound 124]			100%	100%
Cc1cc(F)c(-n2nc(SCC#N)nc2N)cc1[S+]([O-])CC(F)(F)F (stereo not drawn) [Compound 141]			100%	97%
Cc1cc(F)c(-n2nc(C(C)(C)C)nc2N)cc1[S+]([O-])CC(F)(F)F (stereo not drawn) [Compound 145]	100	100		
CNc1nc(C(F)(F)F)nn1-c1cc([S+]([O-])CC(F)(F)F)c(C)cc1C (stereo not drawn) [Compound 147]	100	100		
C#CCSc1nc(N)n(-c2cc(SCC(F)(F)F)c(C)cc2F)n1 [Compound 148]			100%	99%
CNc1nc(SCC(F)(F)F)nn1-c1cc(SCC(F)(F)F)c(C)cc1F [Compound 160]			100%	100%
Cc1cc(F)c(-n2nc(C(F)(F)F)nc2NCC#N)cc1SCC(F)(F)F [Compound 164]			100%	100%
CNC(=O)Nc1nc(C(F)(F)F)nn1-c1cc(SCC(F)(F)F)c(C)cc1F [Compound 168]			100%	100%
Cc1cc(F)c(-n2nc(C(F)(F)F)nc2N(C)N)cc1SCC(F)(F)F [Compound 170]			100%	100%
Cc1cc(F)c(-n2nc(C(F)(F)C(F)(F)C(F)(F)F)nc2N)cc1SCC(F)(F)F [Compound 174]			90%	100%
Cc1cc(F)c(-n2nc(SC(F)(F)C(F)(F)F)nc2N)cc1SCC(F)(F)F [Compound 176]			90%	97%
C#CCNc1nc(SC(F)(F)C(F)(F)F)nn1-c1cc(SCC(F)(F)F)c(C)cc1F [Compound 193]			100%	100%
COC(=O)c1nc(C(F)(F)F)nn1-c1cc(SCC(F)(F)F)c(C)cc1F [Compound 203]				92%
Cc1cc(F)c(-n2nc(C(F)(F)F)nc2C(N)=O)cc1SCC(F)(F)F [Compound 207]				100%
Cc1cc(F)c(-n2nc(C(F)(F)F)nc2C#N)cc1SCC(F)(F)F [Compound 209]				100%
O=Cc1ccc(-n2cnc(C(F)(F)F)n2)cc1[S+]([O-])CC(F)(F)F (stereo not drawn) [a, reference compound]	0	100		
[O-][S+](CC(F)(F)F)c1cc(-n2cnc(C(F)(F)F)n2)ccc1CF (stereo not drawn) [b, reference compound]	0	99		
